Biological target: Aβ42 (Homo sapiens, UniProt P05067)
Experiment: Th-T (thioflavin-T) assay of Aβ42 aggregation
Type: biochemical
Details: for Th-T fluorescence, mean of three wells: Aβ42 aggregation time course

Sequence of Aβ42 (P05067 672-713): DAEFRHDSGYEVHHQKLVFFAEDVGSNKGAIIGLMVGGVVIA

C=C1CCC2C(C)(CCC=C(C)C)C(O)CCC2(C)C1Cc1c(OC)oc(CO)c(C)c1=O (stereo not drawn) [Compound 12]
delay of the nucleation phase: no delay
elongation of Aβ42: partly suppressed the elongation of Aβ42
first Th-T assay result (Aβ42 (10 μM) ± DPPs (20 μM), room temperature): suppressed Aβ42
Th-T fluorescence, mean of three wells (reading M117): 2.054
Th-T fluorescence, mean of three wells (reading M118): 2.063
Th-T fluorescence, mean of three wells (reading M119): 2.053
Th-T fluorescence, mean of three wells (reading M120): 2.05
Th-T fluorescence, mean of three wells (reading M121): 2.047
Th-T fluorescence, mean of three wells (reading M122): 2.039
Th-T fluorescence, mean of three wells (reading M123): 2.052
Th-T fluorescence, mean of three wells (reading M124): 2.0354
Th-T fluorescence, mean of three wells (reading M125): 2.03
Th-T fluorescence, mean of three wells (reading M126): 2.03
Th-T fluorescence, mean of three wells (reading M127): 2.041
Th-T fluorescence, mean of three wells (reading M128): 2.036
Th-T fluorescence, mean of three wells (reading M129): 2.023
Th-T fluorescence, mean of three wells (reading M130): 2.033
Th-T fluorescence, mean of three wells (Fig. 7a) (column suffix _10, measurement M19): 2.572
Th-T fluorescence, mean of three wells (Fig. 7a) (column suffix _10, measurement M20): 2.604
Th-T fluorescence, mean of three wells (Fig. 7a) (column suffix _10, measurement M21): 2.632
Th-T fluorescence, mean of three wells (Fig. 7a) (column suffix _10, measurement M22): 2.671
Th-T fluorescence, mean of three wells (Fig. 7a) (column suffix _10, measurement M23): 2.692
Th-T fluorescence, mean of three wells (Fig. 7a) (column suffix _10, measurement M24): 2.757
Th-T fluorescence, mean of three wells (Fig. 7a) (column suffix _10, measurement M25): 2.768
Th-T fluorescence, mean of three wells (Fig. 7a) (column suffix _10, measurement M26): 2.841
Th-T fluorescence, mean of three wells (Fig. 7a) (column suffix _10, measurement M27): 2.803
Th-T fluorescence, mean of three wells (Fig. 7a) (column suffix _10, measurement M28): 2.855
Th-T fluorescence, mean of three wells (Fig. 7a) (column suffix _10, measurement M29): 2.853
Th-T assay signal, mean of three wells (Fig. 7a) (column suffix _10, reading M1): 0.2279
Th-T assay signal, mean of three wells (Fig. 7a) (column suffix _10, reading M2): 0.2383
Th-T assay signal, mean of three wells (Fig. 7a) (column suffix _10, reading M3): 0.2633
Th-T assay signal, mean of three wells (Fig. 7a) (column suffix _10, reading M4): 0.2928
Th-T assay signal, mean of three wells (Fig. 7a) (column suffix _10, reading M5): 0.3222
Th-T assay signal, mean of three wells (Fig. 7a) (column suffix _10, reading M6): 0.3621
Th-T assay signal, mean of three wells (Fig. 7a) (column suffix _10, reading M7): 0.3868
Th-T assay signal, mean of three wells (Fig. 7a) (column suffix _10, reading M8): 0.4315
Th-T assay signal, mean of three wells (Fig. 7a) (column suffix _10, reading M9): 0.4649
Th-T assay signal, mean of three wells (Fig. 7a) (column suffix _10, reading M10): 0.5209
Th-T assay signal, mean of three wells (Fig. 7a) (column suffix _10, reading M11): 0.5656
Th-T assay signal, mean of three wells (Fig. 7a) (column suffix _10, reading M12): 0.6921
Th-T assay signal, mean of three wells (Fig. 7a) (column suffix _10, reading M13): 1.089
Th-T assay signal, mean of three wells (Fig. 7a) (column suffix _10, reading M14): 1.582
Th-T assay signal, mean of three wells (Fig. 7a) (column suffix _10, reading M15): 1.98
Th-T assay signal, mean of three wells (Fig. 7a) (column suffix _10, reading M16): 2.245
Th-T assay signal, mean of three wells (Fig. 7a) (column suffix _10, reading M17): 2.406
Th-T assay signal, mean of three wells (Fig. 7a) (column suffix _10, reading M18): 2.511
Fig. 7a Th-T reading, mean of three wells (column suffix _10, reading M85): 3.136
Fig. 7a Th-T reading, mean of three wells (column suffix _10, reading M86): 3.133
Fig. 7a Th-T reading, mean of three wells (column suffix _10, reading M87): 3.112
Fig. 7a Th-T reading, mean of three wells (column suffix _10, reading M88): 3.093
Fig. 7a Th-T reading, mean of three wells (column suffix _10, reading M89): 3.066
Fig. 7a Th-T reading, mean of three wells (column suffix _10, reading M90): 3.046
Fig. 7a Th-T reading, mean of three wells (column suffix _10, reading M91): 3.03
Fig. 7a Th-T reading, mean of three wells (column suffix _10, reading M92): 3.012
Fig. 7a Th-T reading, mean of three wells (column suffix _10, reading M93): 2.997
Fig. 7a Th-T reading, mean of three wells (column suffix _10, reading M94): 2.971
Fig. 7a Th-T reading, mean of three wells (column suffix _10, reading M95): 2.948
Fig. 7a Th-T reading, mean of three wells (column suffix _10, reading M96): 2.943
Fig. 7a Th-T reading, mean of three wells (column suffix _10, reading M97): 2.923
Fig. 7a Th-T reading, mean of three wells (column suffix _10, reading M98): 2.913
Fig. 7a Th-T reading, mean of three wells (column suffix _10, reading M99): 2.8964
Fig. 7a Th-T reading, mean of three wells (column suffix _10, reading M100): 2.873
Fig. 7a Th-T reading, mean of three wells (column suffix _10, reading M101): 2.854
Fig. 7a Th-T reading, mean of three wells (column suffix _10, reading M102): 2.835
Fig. 7a Th-T reading, mean of three wells (column suffix _10, reading M103): 2.818
Fig. 7a Th-T reading, mean of three wells (column suffix _10, reading M104): 2.806
Fig. 7a Th-T reading, mean of three wells (column suffix _10, reading M105): 2.7797
Fig. 7a Th-T reading, mean of three wells (column suffix _10, reading M106): 2.769
Th-T fluorescence, mean of three wells (Fig. 7a) (column suffix _20, measurement M19): 2.538
Th-T fluorescence, mean of three wells (Fig. 7a) (column suffix _20, measurement M20): 2.543
Th-T fluorescence, mean of three wells (Fig. 7a) (column suffix _20, measurement M21): 2.5199
Th-T fluorescence, mean of three wells (Fig. 7a) (column suffix _20, measurement M22): 2.494
Th-T fluorescence, mean of three wells (Fig. 7a) (column suffix _20, measurement M23): 2.481
Th-T fluorescence, mean of three wells (Fig. 7a) (column suffix _20, measurement M24): 2.476
Th-T fluorescence, mean of three wells (Fig. 7a) (column suffix _20, measurement M25): 2.43
Th-T fluorescence, mean of three wells (Fig. 7a) (column suffix _20, measurement M26): 2.427
Th-T fluorescence, mean of three wells (Fig. 7a) (column suffix _20, measurement M27): 2.441
Th-T fluorescence, mean of three wells (Fig. 7a) (column suffix _20, measurement M28): 2.387
Th-T fluorescence, mean of three wells (Fig. 7a) (column suffix _20, measurement M29): 2.411
Th-T fluorescence, mean of three wells (Fig. 7a) (column suffix _20, measurement M30): 2.389
Th-T assay signal, mean of three wells (Fig. 7a) (column suffix _20, reading M1): 0.2949
Th-T assay signal, mean of three wells (Fig. 7a) (column suffix _20, reading M2): 0.3314
Th-T assay signal, mean of three wells (Fig. 7a) (column suffix _20, reading M3): 0.3699
Th-T assay signal, mean of three wells (Fig. 7a) (column suffix _20, reading M4): 0.6391
Th-T assay signal, mean of three wells (Fig. 7a) (column suffix _20, reading M5): 1.147
Th-T assay signal, mean of three wells (Fig. 7a) (column suffix _20, reading M6): 1.822
Th-T assay signal, mean of three wells (Fig. 7a) (column suffix _20, reading M7): 2.22
Th-T assay signal, mean of three wells (Fig. 7a) (column suffix _20, reading M8): 2.421
Th-T assay signal, mean of three wells (Fig. 7a) (column suffix _20, reading M9): 2.522
Th-T assay signal, mean of three wells (Fig. 7a) (column suffix _20, reading M10): 2.562
Th-T assay signal, mean of three wells (Fig. 7a) (column suffix _20, reading M11): 2.583
Th-T assay signal, mean of three wells (Fig. 7a) (column suffix _20, reading M12): 2.606
Th-T assay signal, mean of three wells (Fig. 7a) (column suffix _20, reading M13): 2.583
Th-T assay signal, mean of three wells (Fig. 7a) (column suffix _20, reading M14): 2.612
Th-T assay signal, mean of three wells (Fig. 7a) (column suffix _20, reading M15): 2.602
Th-T assay signal, mean of three wells (Fig. 7a) (column suffix _20, reading M16): 2.5699
Th-T assay signal, mean of three wells (Fig. 7a) (column suffix _20, reading M17): 2.585
Th-T assay signal, mean of three wells (Fig. 7a) (column suffix _20, reading M18): 2.567
Fig. 7a Th-T reading, mean of three wells (column suffix _20, reading M85): 2.083
Fig. 7a Th-T reading, mean of three wells (column suffix _20, reading M86): 2.058
Fig. 7a Th-T reading, mean of three wells (column suffix _20, reading M87): 2.078
Fig. 7a Th-T reading, mean of three wells (column suffix _20, reading M88): 2.109
Fig. 7a Th-T reading, mean of three wells (column suffix _20, reading M89): 2.106
Fig. 7a Th-T reading, mean of three wells (column suffix _20, reading M90): 2.088
Fig. 7a Th-T reading, mean of three wells (column suffix _20, reading M91): 2.094
Fig. 7a Th-T reading, mean of three wells (column suffix _20, reading M92): 2.104
Fig. 7a Th-T reading, mean of three wells (column suffix _20, reading M93): 2.083
Fig. 7a Th-T reading, mean of three wells (column suffix _20, reading M94): 2.114
Fig. 7a Th-T reading, mean of three wells (column suffix _20, reading M95): 2.102
Fig. 7a Th-T reading, mean of three wells (column suffix _20, reading M96): 2.08
Fig. 7a Th-T reading, mean of three wells (column suffix _20, reading M97): 2.11
Fig. 7a Th-T reading, mean of three wells (column suffix _20, reading M98): 2.085
Fig. 7a Th-T reading, mean of three wells (column suffix _20, reading M99): 2.135
Fig. 7a Th-T reading, mean of three wells (column suffix _20, reading M100): 2.117
